Patent publication US20250228873A1, “C25 R AND S ISOMERS OF AMINOSTEROLS AND METHODS OF MAKING AND USING THE SAME” (Enterin, Inc., priority 2022, published 2025)
Read-outs that look alike come from different tables or passages of the source.

Assays:
Test in all cases: Phosphatase panel, DiFMUP fluorescence assay
Type in all cases: biochemical
[1] = biological target: T1, PP2A Alpha/PP2R1A Complex (Homo sapiens, UniProt P67775)
T1 construct: purchased Recation Biology Inc

PTPRC/CD45 = biological target: T2, PTPRC/CD45 (Homo sapiens, UniProt P08575)
T2 construct: purchased Recation Biology Inc
T2 sequence (P08575 26-1306): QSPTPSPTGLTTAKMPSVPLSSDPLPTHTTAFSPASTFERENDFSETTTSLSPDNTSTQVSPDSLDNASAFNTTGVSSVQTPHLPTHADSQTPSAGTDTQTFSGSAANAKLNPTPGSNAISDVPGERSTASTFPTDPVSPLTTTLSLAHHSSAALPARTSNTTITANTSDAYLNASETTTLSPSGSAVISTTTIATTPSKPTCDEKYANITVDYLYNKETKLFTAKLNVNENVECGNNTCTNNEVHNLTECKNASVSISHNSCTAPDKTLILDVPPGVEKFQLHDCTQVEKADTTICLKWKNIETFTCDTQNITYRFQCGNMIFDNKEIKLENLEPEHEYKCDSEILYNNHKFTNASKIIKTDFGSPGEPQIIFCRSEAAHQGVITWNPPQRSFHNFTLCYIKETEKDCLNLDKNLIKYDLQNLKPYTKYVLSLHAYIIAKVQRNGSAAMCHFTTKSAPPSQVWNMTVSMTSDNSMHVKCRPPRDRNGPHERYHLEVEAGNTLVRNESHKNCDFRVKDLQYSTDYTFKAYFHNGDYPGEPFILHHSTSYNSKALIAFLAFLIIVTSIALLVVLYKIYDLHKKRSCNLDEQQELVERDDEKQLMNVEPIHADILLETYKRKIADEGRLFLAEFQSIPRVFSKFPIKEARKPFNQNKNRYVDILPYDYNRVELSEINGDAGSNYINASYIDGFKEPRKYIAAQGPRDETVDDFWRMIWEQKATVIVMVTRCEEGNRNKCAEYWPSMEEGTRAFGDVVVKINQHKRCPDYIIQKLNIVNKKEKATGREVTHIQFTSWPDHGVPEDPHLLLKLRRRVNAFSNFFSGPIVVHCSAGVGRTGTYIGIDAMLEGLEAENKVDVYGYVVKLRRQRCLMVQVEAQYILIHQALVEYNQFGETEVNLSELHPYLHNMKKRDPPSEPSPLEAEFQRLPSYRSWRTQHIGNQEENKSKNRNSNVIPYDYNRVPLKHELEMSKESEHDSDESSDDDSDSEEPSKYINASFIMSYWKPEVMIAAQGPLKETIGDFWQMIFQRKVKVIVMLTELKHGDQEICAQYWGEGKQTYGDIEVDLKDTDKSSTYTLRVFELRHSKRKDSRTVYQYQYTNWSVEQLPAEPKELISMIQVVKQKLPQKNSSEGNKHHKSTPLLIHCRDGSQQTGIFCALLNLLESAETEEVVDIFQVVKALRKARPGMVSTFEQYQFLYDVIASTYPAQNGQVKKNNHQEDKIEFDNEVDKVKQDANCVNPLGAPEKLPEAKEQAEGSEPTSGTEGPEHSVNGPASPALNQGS

DUSP22/MKPX = biological target: T3, DUSP22/MKPX (Homo sapiens, UniProt Q9NRW4)
T3 construct: purchased Recation Biology Inc
T3 sequence (Q9NRW4 1-184): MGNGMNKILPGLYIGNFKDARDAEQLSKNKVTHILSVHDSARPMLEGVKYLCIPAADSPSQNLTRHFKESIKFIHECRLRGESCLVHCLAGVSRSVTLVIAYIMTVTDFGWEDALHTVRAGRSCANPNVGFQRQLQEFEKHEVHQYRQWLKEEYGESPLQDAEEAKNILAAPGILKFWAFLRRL

PTPN1/PTP1B-CD = biological target: T4, PTPN1/PTP1B-CD (Homo sapiens, UniProt P18031)
T4 construct: purchased Recation Biology Inc
T4 sequence (P18031 3-277 limits assumed): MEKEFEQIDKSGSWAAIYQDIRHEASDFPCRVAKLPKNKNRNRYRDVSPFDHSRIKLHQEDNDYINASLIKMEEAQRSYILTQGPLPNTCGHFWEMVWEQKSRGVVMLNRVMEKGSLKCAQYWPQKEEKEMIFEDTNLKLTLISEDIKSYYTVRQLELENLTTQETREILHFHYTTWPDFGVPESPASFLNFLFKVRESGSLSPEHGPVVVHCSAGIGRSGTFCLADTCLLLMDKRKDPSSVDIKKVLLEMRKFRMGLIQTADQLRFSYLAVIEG

PP1A = biological target: T5, PP1A (Homo sapiens, UniProt P62136)
T5 construct: purchased Recation Biology Inc
T5 sequence (P62136 whole entry): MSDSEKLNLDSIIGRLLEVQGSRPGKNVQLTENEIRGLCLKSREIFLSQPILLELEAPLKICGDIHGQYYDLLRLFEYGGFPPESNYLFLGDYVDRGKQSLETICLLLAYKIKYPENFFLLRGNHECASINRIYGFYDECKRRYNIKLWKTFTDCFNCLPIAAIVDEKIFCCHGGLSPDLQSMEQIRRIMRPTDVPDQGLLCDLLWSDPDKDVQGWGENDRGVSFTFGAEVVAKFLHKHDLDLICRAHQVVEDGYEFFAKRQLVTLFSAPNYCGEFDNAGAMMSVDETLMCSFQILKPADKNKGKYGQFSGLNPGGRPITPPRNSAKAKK

PP1B = biological target: T6, PP1B (Homo sapiens, UniProt P62140)
T6 construct: purchased Recation Biology Inc
T6 sequence (P62140 whole entry): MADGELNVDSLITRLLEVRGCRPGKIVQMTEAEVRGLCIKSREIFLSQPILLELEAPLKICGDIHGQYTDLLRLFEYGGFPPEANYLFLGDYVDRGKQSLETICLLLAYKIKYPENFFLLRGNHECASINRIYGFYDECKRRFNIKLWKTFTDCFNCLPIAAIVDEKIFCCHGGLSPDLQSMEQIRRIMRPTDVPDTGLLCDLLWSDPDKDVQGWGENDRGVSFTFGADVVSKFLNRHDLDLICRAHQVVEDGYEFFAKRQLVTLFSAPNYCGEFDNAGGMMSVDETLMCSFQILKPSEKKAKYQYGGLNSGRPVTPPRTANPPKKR

PTPN11/SHP2 = biological target: T7, PTPN11/SHP2 (Homo sapiens, UniProt Q06124); details: read-out: inhibitory activity PTPN11/SHP
T7 sequence (Q06124 1-593): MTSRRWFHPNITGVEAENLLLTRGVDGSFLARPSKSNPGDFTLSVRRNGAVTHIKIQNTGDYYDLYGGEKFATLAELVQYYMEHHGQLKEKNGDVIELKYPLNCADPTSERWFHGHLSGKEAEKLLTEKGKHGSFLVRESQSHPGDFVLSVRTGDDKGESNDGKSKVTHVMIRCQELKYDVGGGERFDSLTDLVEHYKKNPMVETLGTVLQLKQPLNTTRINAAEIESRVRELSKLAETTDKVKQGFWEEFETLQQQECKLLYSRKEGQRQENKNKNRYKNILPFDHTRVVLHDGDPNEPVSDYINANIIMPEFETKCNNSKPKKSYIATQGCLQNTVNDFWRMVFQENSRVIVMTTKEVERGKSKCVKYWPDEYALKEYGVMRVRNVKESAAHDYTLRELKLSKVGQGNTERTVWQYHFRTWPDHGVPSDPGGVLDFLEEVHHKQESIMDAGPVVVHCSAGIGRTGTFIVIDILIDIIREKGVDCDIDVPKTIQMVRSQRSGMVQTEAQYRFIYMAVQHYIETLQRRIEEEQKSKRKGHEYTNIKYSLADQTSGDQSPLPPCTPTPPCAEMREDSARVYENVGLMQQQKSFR

[2] = Table 5B, read-out: Compound IC50 (M) PP2A Alpha/PP2R1A Complex
[3] = Table 5B, read-out: Compound IC50 (M) PTPRC/CD45
[4] = Table 5B, read-out: Compound IC50 (M) DUSP22/MKPX
[5] = Table 19A, read-out: inhibitory activity PP2A Alpha/PP2R1A Complex
[6] = Table 19B, read-out: inhibitory activity PTPN1/PTP1B-CD
[7] = Table 19A, read-out: inhibitory activity PP1A
[8] = Table 19A, read-out: inhibitory activity PP1B
[9] = Table 19A, read-out: inhibitory activity PTPRC/CD45
[10] = Table 19A, read-out: inhibitory activity DUSP22/MKPXPT

T1 sequence (P67775 whole entry): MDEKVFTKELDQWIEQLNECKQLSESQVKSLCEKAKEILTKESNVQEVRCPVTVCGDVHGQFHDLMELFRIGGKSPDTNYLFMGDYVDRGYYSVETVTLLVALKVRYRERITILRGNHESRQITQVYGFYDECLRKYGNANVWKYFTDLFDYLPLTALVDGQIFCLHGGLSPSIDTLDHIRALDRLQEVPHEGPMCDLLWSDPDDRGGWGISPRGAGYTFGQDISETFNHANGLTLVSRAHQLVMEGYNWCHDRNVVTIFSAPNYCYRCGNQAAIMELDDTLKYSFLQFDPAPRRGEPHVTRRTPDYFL
T1 sequence (P30153 whole entry partner): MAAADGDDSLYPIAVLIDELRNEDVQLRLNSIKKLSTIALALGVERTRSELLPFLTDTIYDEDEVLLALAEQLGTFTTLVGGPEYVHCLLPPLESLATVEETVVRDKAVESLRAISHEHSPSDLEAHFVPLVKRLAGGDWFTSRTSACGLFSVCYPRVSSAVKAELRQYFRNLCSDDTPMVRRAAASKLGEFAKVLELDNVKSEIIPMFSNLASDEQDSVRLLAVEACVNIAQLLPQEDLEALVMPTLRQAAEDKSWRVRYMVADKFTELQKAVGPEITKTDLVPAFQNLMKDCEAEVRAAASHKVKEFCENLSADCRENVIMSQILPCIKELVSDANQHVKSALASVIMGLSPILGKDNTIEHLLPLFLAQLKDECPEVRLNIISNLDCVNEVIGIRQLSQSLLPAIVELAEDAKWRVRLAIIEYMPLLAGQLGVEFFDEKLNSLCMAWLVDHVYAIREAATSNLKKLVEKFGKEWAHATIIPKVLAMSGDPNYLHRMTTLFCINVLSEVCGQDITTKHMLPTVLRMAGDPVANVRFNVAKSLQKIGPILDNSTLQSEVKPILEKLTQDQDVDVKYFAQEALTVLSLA

Row | SMILES | IC50 [1, 2] | IC50 (PTPRC/CD45; [3]) | IC50 (DUSP22/MKPX; [4]) | IC50 [1, 5] | IC50 (PTPN1/PTP1B-CD; [6]) | IC50 (PP1A; [7]) | IC50 (PP1B; [8]) | IC50 (PTPRC/CD45; [9]) | IC50 (PTPN11/SHP2; Table 19A) | IC50 (DUSP22/MKPX; [10]) | further results
1 | CC(C)[C@@H](CC[C@@H](C)[C@H]1CC[C@H]2[C@@H]3[C@H](O)C[C@H]4C[C@@H](NCCCNCCCCNCCCN)CC[C@]4(C)[C@H]3CC[C@]12C)OS(=O)(=O)O (single isomer, unassigned) [ENT-02 (MSI-1436), trodusquemine] | 5.72e-05 M | 4.94e-07 M | 6.39e-07 M | – | – | – | – | – | – | – | –
2 | CC(CCC[C@@H](C)[C@H]1CCC2C3C(CC[C@@]21C)[C@@]1(C)CC[C@H](NCCCNCCCCNCCCN)C[C@@H]1C[C@H]3O)C(=O)O (single isomer, unassigned) [ENT-03] | > 0.0001 M | 5.71e-07 M | 1.38e-06 M | > 0.0001 M | 1.17e-07 M | > 0.0001 M | > 0.0001 M | 5.17e-07 M | 5 µM | 1.38e-06 M | activity at PP2 Å alpha [1]: inactive; IC50 (PTPN1/PTP1B-CD; Table 5C, read-out: Compound IC50 (M) PTPN1/PTP1B-CD): 1.17e-07 M; activity at PP1A (PP1A): inactive; IC50 (PP1A; Table 5B, read-out: Compound IC50 (M) PP1A): > 0.0001 M; activity at PP1B (PP1B): inactive; IC50 (PP1B; Table 5B, read-out: Compound IC50 (M) PP1B): > 0.0001 M
3 | CC(CCC[C@@H](C)[C@H]1CCC2C3C(CC(O)[C@@]21C)[C@@]1(C)CC[C@H](NCCCNCCCCN)C[C@@H]1C[C@H]3O)C(=O)O (single isomer, unassigned) [ENT-05] | – | – | – | – | – | – | – | – | – | – | IC50 ([1]; Table 18A, read-out: inhibitory activity PP2A Alpha/PP2R1A Complex): 3.8e-06 M; IC50 (PTPN1/PTP1B-CD; Table 18B, read-out: inhibitory activity PTPN1/PTP1B-CD): 2.58e-06 M; IC50 (PP1A; Table 18A, read-out: inhibitory activity PP1A): > 0.0001 M; IC50 (PP1B; Table 18A, read-out: inhibitory activity PP1B): > 0.0001 M; IC50 (PTPRC/CD45; Table 18A, read-out: inhibitory activity PTPRC/CD45): > 0.0001 M; IC50 (PTPN11/SHP2; Table 18A): 18.4 µM; IC50 (DUSP22/MKPX; Table 18A, read-out: inhibitory activity DUSP22/MKPX): > 0.0001 M
4 | CC(CCC[C@@H](C)[C@H]1CCC2C3C(CC[C@@]21C)[C@@]1(C)CC[C@H](NCCCNCCCCN)C[C@@H]1C[C@H]3O)C(=O)O (single isomer, unassigned) [ENT-06] | – | – | – | > 0.0001 M | 1.47e-07 M | > 0.0001 M | > 0.0001 M | 1.22e-06 M | 3.45 µM | 2.09e-06 M | –
